Where two headings read alike, the source gives them in different places. One block for each molecule: values may come before it.
Legend:
[1] = test system: Karpas422 cells; test: Tumor cell growth inhibition assay; type: cell-based; conditions: Homo sapiens, KARPAS-422, 144 h, read-out: GI Karpas EC50
Protocol: Tumor Cell Growth Inhibition Assay:
Karpas422 cells were seeded into a 96-well plate at 2,000 cells/well in 150 μl medium (Alpha-MEM containing 10% FBS, […] Normocin, and […] Gentamycin, Invitrogen). A HP D300 digital dispenser was used to dose cells with DMSO or test compounds across a 10-point range of concentrations (high dose of 5 μM), and cultures were grown in a humidified 5% CO2 incubator at 37° C. After six days, plates were removed from incubator and equilibrated to room temperature. An equal volume of ATPlite assay reagent was added to each well, and samples were processed according to the manufacturer's instructions (Perkin Elmer). The luminescent signal was measured using an Envision plate reader equipped with a US-Luminescence detector.

[2] = test system: BCL6 reporter construct in SuDHL4-3×BCL6-TK-Luc cells; test: Cell-based luciferase assay (BCL6 reporter); conditions: 48 h, read-out: Luc IC50
Protocol: Cell-Based Luciferase Assay:
A BCL6 reporter construct containing three copies of the consensus BCL6 binding site, the TK promoter, and the firefly luciferase gene was stably expressed in SuDHL4 cells after lentivirus infection and selection with Blasticidin. SuDHL4-3×BCL6-TK-Luc cells were seeded into a Viewplate 384-well assay dish at 15,000 cells/well in […] (Alpha-MEM high glucose containing 10% FBS, 25 mM HEPES, […] GlutaMAX, 100 µg/mL Normocin, and […] Gentamycin, Invitrogen). A HP D300 digital dispenser was used to dose cells with DMSO or test compounds across a 10-point range of concentrations (high dose of 10 μM), and cultures were grown in a humidified 5% CO2 incubator at 37° C. After two days, plates were removed from the incubator and equilibrated to room temperature. An equal volume of neolite reporter gene assay reagent was added to each well, and samples were processed according to the manufacturer's instructions (Perkin Elmer). The luminescent signal was measured using an Envision plate reader equipped with a US-Luminescence detector.

[3] = biological target: BCL6 BTB domain (biotin-thrombin-BCL6 amino acids 1-129) (Homo sapiens (Human), UniProt P41182); test: Surface Plasmon Resonance (SPR) assay; type: binding; conditions: Biacore T200, single cycle kinetic analysis
Protocol: Surface Plasmon Resonance (SPR) Assay
SPR studies were performed using a Biacore™ T200 instrument (GE Health Sciences Inc.). […] The Biacore flow rate was set at 100 μl/min. […] Curve fitting and KD calculations were performed with the Biacore T200 Evaluation software (GE Health Sciences Inc).

[4] = Karpas422 cells, six days, ATPlite
[5] = SuDHL4-3×BCL6-TK-Luc cells, two days

SMILES: C[C@H]1COCCN1c1cc(NC(=O)Cn2cc(-c3cc(Cl)c(O)c(C(N)=O)c3)c3c(=O)n4c(nc32)CCC4)c(Cl)cn1 [I-2, (S)-3-chloro-5-(1-(2-((5-chloro-2-(3-methyl-morpholino)pyridin-4-yl)amino)-2-oxoethyl)-4-oxo-4,6,7,8-tetra-hydro-1H-dipyrrolo [1,2-a:2′,3′-d]pyrimidin-3-yl)-2-hydroxy-benzamide]
EC50 [1, 4]: 304 nM
IC50 [2, 5]: 95 nM
Kd [3]: 4.48 nM

SMILES: C[C@H]1COCCN1c1cc(NC(=O)Cn2cc(-c3cc(C(N)=O)c(O)c(F)c3F)c3c(=O)n4c(nc32)CCC4)c(Cl)cn1 [I-3, (S)-5-(1-(2-((5-chloro-2-(3-methylmorpho-lino)pyridin-4-yl)amino)-2-oxoethyl)-4-oxo-4,6,7,8-tetrahydro-1H-dipyrrolo[1,2-a:2′,3′-d]pyrimidin-3-yl)-3,4-difluoro-2-hydroxy-benzamide]
EC50 [1, 4]: 502 nM
IC50 [2, 5]: 708 nM
Kd [3]: 25.2 nM

SMILES: C[C@H]1CN(C)CCN1c1cc(NC(=O)Cn2cc(-c3cc(C(N)=O)c(O)c(F)c3F)c3c(=O)n4c(nc32)CCC4)c(Cl)cn1 [I-4, (S)-5-(1-(2-((5-chloro-2-(2,4-dimethylpiperazin-1-yl)pyridin-4-yl)amino)-2-oxoethyl)-4-oxo-4,6,7,8-tetrahydro-1H-dipyrrolo [1,2-a:2′,3′-d]pyrimidin-3-yl)-3,4-difluoro-2-hydroxybenzamide]
EC50 [1, 4]: 312 nM
IC50 [2, 5]: 318 nM
Kd [3]: 23.2 nM

SMILES: C[C@H]1COCCN1c1cc(NC(=O)Cn2cc(-c3cc(C(N)=O)c(O)c(F)c3F)c3c(=O)n4c(nc32)CCC4)c(Cl)c(F)n1 [I-5, (S)-5-(1-(2-((3-chloro-2-fluoro-6-(3-methyl-morpholino)pyridin-4-yl)amino)-2-oxoethyl)-4-oxo-4,6,7,8-tetrahydro-1H-dipyrrolo[1,2-a:2′,3′-d]pyrimidin-3-yl)-3,4-difluoro-2-hydroxy-benzamide]
EC50 [1]: 124 nM
IC50 [2]: 167 nM
Kd [3]: 11.7 nM

SMILES: C[C@H]1CN(CC2CC2)CCN1c1cc(NC(=O)Cn2cc(-c3cc(C(N)=O)c(O)c(F)c3F)c3c(=O)n4c(nc32)CCC4)c(Cl)cn1 [I-6, (S)-5-(1-(2-((5-chloro-2-(4-(cyclopropylmethyl)-2-methylpiperazin-1-yl)pyridin-4-yl)amino)-2-oxoethyl)-4-oxo-4,6,7,8-tetrahydro-1H-dipyrrolo[1,2-a:2′,3′-d]pyrimidin-3-yl)-3,4-difluoro-2-hydroxy-benzamide]
EC50 [1, 4]: 997 nM
IC50 [2, 5]: 306 nM
Kd [3]: 25.9 nM

SMILES: C[C@H]1CN(C2COC2)CCN1c1cc(NC(=O)Cn2cc(-c3cc(C(N)=O)c(O)c(F)c3F)c3c(=O)n4c(nc32)CCC4)c(Cl)cn1 [I-7, (S)-5-(1-(2-((5-chloro-2-(2-methyl-4-(oxetan-3-yl)piperazin-1-yl)pyridin-4-yl)amino)-2-oxoethyl)-4-oxo-4,6,7,8-tetrahydro-1H-dipyrrolo[1,2-a:2′,3′-d]pyrimidin-3-yl)-3,4-difluoro-2-hydroxy-benzamide]
EC50 [1, 4]: 299 nM
IC50 [2, 5]: 213 nM
Kd [3]: 17.6 nM

SMILES: C[C@H]1CN(CC2(C)CC2)CCN1c1cc(NC(=O)Cn2cc(-c3cc(C(N)=O)c(O)c(F)c3F)c3c(=O)n4c(nc32)CCC4)c(Cl)cn1 [I-9, (S)-5-(1-(2-((5-chloro-2-(2-methyl-4-((1-methyl-cyclopropyl)methyl)piperazin-1-yl)pyridin-4-yl)amino)-2-oxoethyl)-4-oxo-4,6,7,8-tetrahydro-1H-dipyrrolo[1,2-a:2′,3′-d]pyrimidin-3-yl)-3,4-difluoro-2-hydroxy-benzamide]
EC50 [1, 4]: 692 nM
IC50 [2, 5]: 743 nM
Kd [3]: 56.8 nM

SMILES: C[C@H]1CN(C)CCN1c1cc(NC(=O)Cn2cc(-c3cc(C(N)=O)c(O)c(Cl)c3F)c3c(=O)n4c(nc32)CCC4)c(Cl)c(F)n1 [I-10, (S)-3-chloro-5-(1-(2-((3-chloro-6-(2,4-dimethylpiperazin-1-yl)-2-fluoropyridin-4-yl)amino)-2-oxoethyl)-4-oxo-4,6,7,8-tetrahydro-1H-dipyrrolo[1,2-a:2′,3′-d]pyrimidin-3-yl)-4-fluoro-2-hydroxy-benzamide]
EC50 [1]: 416 nM
IC50 [2]: 448 nM
Kd [3]: 49.7 nM

SMILES: C[C@H]1COCCN1c1cc(NC(=O)Cn2cc(-c3cc(C(N)=O)c(O)c(Cl)c3F)c3c(=O)n4c(nc32)CCC4)c(Cl)c(F)n1 [I-11, (S)-3-chloro-5-(1-(2-((3-chloro-2-fluoro-6-(3-methylmorpholino)pyridin-4-yl)amino)-2-oxoethyl)-4-oxo-4,6,7,8-tetrahydro-1H-dipyrrolo [1,2-a:2′,3′-d]pyrimidin-3-yl)-4-fluoro-2-hydroxybenzamide]
EC50 [1, 4]: 1900 nM
IC50 [2, 5]: 988 nM
Kd [3]: 112 nM

SMILES: C[C@H]1CN(C)CCN1c1cc(NC(=O)Cn2cc(-c3cc(C(N)=O)c(O)c(Cl)c3F)c3c(=O)n4c(nc32)CCC4)c(Cl)cn1 [I-12, (S)-3-chloro-5-(1-(2-((5-chloro-2-(2,4-dimethyl-piperazin-1-yl)pyridin-4-yl)amino)-2-oxoethyl)-4-oxo-4,6,7,8-tetrahydro-1H-dipyrrolo[1,2-a:2′,3′-d]pyrimidin-3-yl)-4-fluoro-2-hydroxy-benzamide]
EC50 [1]: 1470 nM
IC50 [2]: 994 nM
Kd [3]: 111 nM

SMILES: C[C@H]1COCCN1c1cc(NC(=O)Cn2cc(-c3cc(C(N)=O)c(O)c(Cl)c3F)c3c(=O)n4c(nc32)CCC4)c(Cl)cn1 [I-13, (S)-3-chloro-5-(1-(2-((5-chloro-2-(3-methyl-morpholino)pyridin-4-yl)amino)-2-oxoethyl)-4-oxo-4,6,7,8-tetra-hydro-1H-dipyrrolo [1,2-a:2′,3′-d]pyrimidin-3-yl)-4-fluoro-2-hydroxybenzamide]
EC50 [1, 4]: 1870 nM
IC50 [2, 5]: 1320 nM
Kd [3]: 111 nM

SMILES: C[C@H]1CN(C2COC2)CCN1c1cc(NC(=O)Cn2cc(-c3cc(C(N)=O)c(O)c(Cl)c3F)c3c(=O)n4c(nc32)CCC4)c(Cl)cn1 [I-14, (S)-3-chloro-5-(1-(2-((5-chloro-2-(2-methyl-4-(oxetan-3-yl)piperazin-1-yl)pyridin-4-yl)amino)-2-oxoethyl)-4-oxo-4,6,7,8-tetrahydro-1H-dipyrrolo[1,2-a:2′,3′-d]pyrimidin-3-yl)-4-fluoro-2-hydroxy-benzamide]
EC50 [1, 4]: 698 nM
IC50 [2, 5]: 774 nM
Kd [3]: 58.1 nM

SMILES: COc1c(O)c(C(N)=O)cc(-c2cn(CC(=O)Nc3cc(N4CCN(C)C[C@@H]4C)nc(F)c3Cl)c3nc4n(c(=O)c23)CCC4)c1F [I-15, (S)-5-(1-(2-((3-chloro-6-(2,4-dimethylpiperazin-1-yl)-2-fluoropyridin-4-yl)amino)-2-oxoethyl)-4-oxo-4,6,7,8-tetrahydro-1H-dipyrrolo[1,2-a:2′,3′-d]pyrimidin-3-yl)-4-fluoro-2-hydroxy-3-methoxybenzamide]
IC50 [2]: 374 nM
Kd [3]: 34.1 nM

IC50 [2]: 510 nM
SMILES: COc1c(O)c(C(N)=O)cc(-c2cn(CC(=O)Nc3cc(N4CCOC[C@@H]4C)nc(F)c3Cl)c3nc4n(c(=O)c23)CCC4)c1F [I-16, (S)-5-(1-(2-((3-chloro-2-fluoro-6-(3-methyl-morpholino)pyridin-4-yl)amino)-2oxoethyl)-4-oxo-4,6,7,8-tetra-hydro-1H-dipyrrolo [1,2-a:2′,3′-d]pyri-midin-3-yl)-4-fluoro-2-hydroxy-3-methoxy-benzamide]

SMILES: COc1c(O)c(C(N)=O)cc(-c2cn(CC(=O)Nc3cc(N4CCN(C)C[C@@H]4C)ncc3Cl)c3nc4n(c(=O)c23)CCC4)c1F [I-17, (S)-5-(1-(2-((5-chloro-2-(2,4-dimethyl-piperazin-1-yl)pyridin-4-yl)amino)-2-oxoethyl)-4-oxo-4,6,7,8-tetrahydro-1H-dipyrrolo[1,2-a:2′,3′-d]pyrimidin-3-yl)-4-fluoro-2-hydroxy-3-methoxybenzamide]
EC50 [1, 4]: 985 nM
IC50 [2, 5]: 850 nM
Kd [3]: 49.6 nM

SMILES: COc1c(O)c(C(N)=O)cc(-c2cn(CC(=O)Nc3cc(N4CCOC[C@@H]4C)ncc3Cl)c3nc4n(c(=O)c23)CCC4)c1F [I-18, (S)-5-(1-(2-((5-chloro-2-(3-methylmorpholino)pyridin-4-yl)amino)-2-oxoethyl)-4-oxo-4,6,7,8-tetrahydro-1H-dipyrrolo[1,2-a:2′,3′-d]pyrimidin-3-yl)-4-fluoro-2-hydroxy-3-methoxybenzamide]
EC50 [1]: 688 nM
IC50 [2]: 818 nM
Kd [3]: 34.3 nM

— patent publication US11242351B2, “Tricyclic inhibitors of the BCL6 BTB domain protein-protein interaction and uses thereof” (priority 2017, dated 2022)
